Test results published in ChEMBL document CHEMBL5346941, “Design, synthesis and evaluation of novel monoamine oxidase B (MAO-B) inhibitors with improved pharmacokinetic properties for Parkinson's disease” (Eur J Med Chem, 2023).
Active and inactive are the calls of the source. The calls are words filed in the database; no cut-off is given here.

Columns and labels:
[1] = AUC (0 to t) in fasted Sprague-Dawley rat at 5 mg/kg, IG measured for 24 hrs; type: ADME, organism-based; set-up: dose 5 mg/kg, time 24 hrs, route ig; settings: in vivo, po
CYP2C8 = molecular target: T1, CYP2C8 (Homo sapiens, UniProt P10632); assay: Inhibition of CYP2C8 in human liver microsomes using amodiaquine as substrate at 10 uM incubated for 45 mins in presence of NADPH by LC-MS/MS analysis relative to control; type: ADME, Microsome; settings: probe amodiaquine
T1 sequence (P10632 whole entry): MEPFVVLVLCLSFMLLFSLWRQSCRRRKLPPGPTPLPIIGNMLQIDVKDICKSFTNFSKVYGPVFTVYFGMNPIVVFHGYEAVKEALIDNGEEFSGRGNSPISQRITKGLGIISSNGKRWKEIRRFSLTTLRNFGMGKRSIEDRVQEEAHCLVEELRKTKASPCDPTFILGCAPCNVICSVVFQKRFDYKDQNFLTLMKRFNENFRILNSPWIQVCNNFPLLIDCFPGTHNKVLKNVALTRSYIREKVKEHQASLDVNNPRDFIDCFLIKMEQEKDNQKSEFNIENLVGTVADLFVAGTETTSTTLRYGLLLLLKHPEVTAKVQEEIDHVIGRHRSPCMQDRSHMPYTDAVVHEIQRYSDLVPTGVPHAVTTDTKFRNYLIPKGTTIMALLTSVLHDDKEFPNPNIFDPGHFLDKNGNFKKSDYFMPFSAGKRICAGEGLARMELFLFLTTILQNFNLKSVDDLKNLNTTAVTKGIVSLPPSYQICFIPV

[2] = Metabolic stability in mouse liver microsomes assessed as intrinsic clearance at 1 uM incubated for 60 mins in presence of NADPH by LC-MS/MS analysis; type: ADME, Microsome; settings: read-out: CLH
[3] = Protein binding in dog plasma at 1 uM incubated for 5 hrs by LC-MS/MS based rapid equilibrium dialysis method; type: ADME, cell-free, Canis lupus familiaris; settings: read-out: PPB (converted)
[4] = Bioavailability in fasted ICR mouse at 5 mg/kg, IG measured for 24 hrs; type: ADME, organism-based; settings: in vivo, po
Mus musculus = assay: Anti-parkinson activity in MPTP-induced dopamine deficit C57BL/6 mouse model assessed as increase in dopamine concentration in striatum at 3 to 10 mg/kg, ip pretreated with MPTP for 4 hrs followed by compound administration for 5 times once every 4 hrs further incubated with benserazide at 12.5 mg/kg for 30 mins prior to last dose and measured after 30 mins by HPLC analysis; type: functional, organism-based; settings: dose 3-10 mg/kg, time 16.5 hrs
[5] = Protein binding in monkey plasma at 0.1 to 10 uM incubated for 5 hrs by LC-MS/MS based rapid equilibrium dialysis method; type: ADME, cell-free, Macaca mulatta; settings: rhesus monkey, dose 0.1-10 µM, read-out: PPB (converted)
[6] = Metabolic stability in dog liver microsomes assessed as half life at 1 uM incubated for 60 mins in presence of NADPH by LC-MS/MS analysis; type: ADME, Canis lupus familiaris, Microsome
[7] = Ratio of drug concentration in Sprague-Dawley brain to plasma at 5 mg/kg, ip measured after 15 mins by LC-MS/MS analysis; type: ADME, organism-based; settings: rat, read-out: BPR
[8] = Ratio of drug concentration in Sprague-Dawley brain to plasma at 5 mg/kg, ip measured after 60 mins by LC-MS/MS analysis; type: ADME, organism-based; settings: rat, read-out: BPR
[9] = In vivo inhibition of MAO-B in ICR mouse assessed as reduction in enzyme activity in brain by measuring fold change at 1.28 mg/kg, ip administered once for 30 to 60 mins by amplex red based assay relative to safinamide; type: functional; settings: time 30-60 min
[10] = Apparent permeability across apical to basolateral side in MDCKII-MDR1 cells at 10 uM incubated for 30 mins by LC-MS/MS analysis; type: ADME, cell-based, Canis lupus familiaris; settings: dog, MDCK-MDR1
[11] = Metabolic stability in mouse liver microsomes assessed as half life at 1 uM incubated for 60 mins in presence of NADPH by LC-MS/MS analysis; type: ADME, Microsome
[12] = Elimination half life in fasted ICR mouse at 5 mg/kg, IG measured for 24 hrs; type: ADME, organism-based; settings: in vivo, po, read-out: beta t1/2 (converted)
CYP2C19 = CYP2C19 (Homo sapiens, UniProt P33261); assay: Inhibition of CYP2C19 in human liver microsomes using omeprazole as substrate at 10 uM incubated for 45 mins in presence of NADPH by LC-MS/MS analysis relative to control; type: ADME, Microsome; settings: probe omeprazole
[13] = Drug concentration in Sprague-Dawley rat brain at 5 mg/kg, ip measured after 120 mins by LC-MS/MS analysis; type: ADME, organism-based; settings: read-out: Ct
[14] = Volume of distribution at steady state in fasted Sprague-Dawley rat at 1 mg/kg, iv measured for 24 hrs; type: ADME, organism-based; settings: in vivo, read-out: Vdss
[15] = Drug concentration in Sprague-Dawley rat brain at 5 mg/kg, ip measured after 15 mins by LC-MS/MS analysis; type: ADME, organism-based; settings: read-out: Ct
[16] = Bioavailability in fasted Sprague-Dawley rat at 5 mg/kg, IG measured for 24 hrs; type: ADME, organism-based; settings: in vivo, po
[17] = Drug concentration in Sprague-Dawley rat plasma at 5 mg/kg, ip measured after 120 mins by LC-MS/MS analysis; type: ADME, organism-based

Chain of CYP2C19 (P33261 whole entry): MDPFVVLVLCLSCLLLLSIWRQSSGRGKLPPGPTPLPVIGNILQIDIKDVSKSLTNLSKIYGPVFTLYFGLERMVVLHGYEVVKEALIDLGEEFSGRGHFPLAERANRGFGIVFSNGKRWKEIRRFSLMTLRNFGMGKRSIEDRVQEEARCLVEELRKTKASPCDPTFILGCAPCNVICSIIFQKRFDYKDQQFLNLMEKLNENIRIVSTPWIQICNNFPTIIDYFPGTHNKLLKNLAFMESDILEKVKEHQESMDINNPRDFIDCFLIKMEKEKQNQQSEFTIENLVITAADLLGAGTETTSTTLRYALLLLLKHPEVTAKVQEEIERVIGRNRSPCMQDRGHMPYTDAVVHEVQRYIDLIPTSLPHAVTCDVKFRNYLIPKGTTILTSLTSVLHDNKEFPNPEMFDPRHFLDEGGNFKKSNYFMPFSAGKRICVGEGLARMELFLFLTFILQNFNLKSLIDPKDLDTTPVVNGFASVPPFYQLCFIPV

Compound: NC(=O)[C@@H]1C[C@H](F)CN1Cc1ccc2oc(-c3ccc(F)cc3)cc2c1
- AUC(0-t) at 24 h [1]: 2280 ng·h/mL
- inhibition at 0.75 h, 10 µM (CYP2C8): 5.74%
- CLint scaled at 1 µM [2]: 6.9 mL/min/kg
- fraction unbound at 5 h, 1 µM [3]: 0.0036
- bioavailability [4]: 105%
- Activity (Mus musculus): Active
- fraction unbound at 5 h, up to 10 µM [5]: 0.0029
- half-life at 1 µM [6]: 2.45 h
- Kp at 0.25 h [7]: 10.4
- Kp at 1 h [8]: 16.2
- fold change (FC) [9]: 5
- Papp A→B at 0.5 h, 10 µM [10]: 8.78 ×10⁻⁶ cm/s
- half-life at 1 µM [11]: 2.82 h
- half-life [12]: 3.8 h
- inhibition at 0.75 h, 10 µM (CYP2C19): 75.9%
- concentration at 2 h [13]: 7090 ng/g
- Vd [14]: 3.33 L/kg
- concentration at 0.25 h [15]: 5560 ng/g
- bioavailability [16]: 150%
- concentration at 2 h [17]: 458 ng/mL
